Results on 23 molecules are retold here after patent US7465471B2, “Palatability of aquaculture feed” (Novus International, Inc., priority 2003, dated 2008).

In one test the test system is mold. The experiment in a line: Mold growth in starter mash by CO2 formation in headspace (Examples 7, 8). Particulars: basal diet 85.2% dry matter; 2.0, 1.5 and 1.0 lb/ton; FIG. 12. As to the method: Fungal growth in basal starter mash was studied in compositions supplemented with DLM or Alimet® as the methionine source. Total microbial growth was monitored by measuring carbon dioxide (CO2) formation in sealed vessels at 28° C. over time.
The technique of using a closed system and measuring CO2 formation has been verified as an approximation of the conditions found in grain storage bins. See, e.g., Muir et al., Trans. ASAE, 28(5) 1673-1675 (1985), the contents of which are hereby incorporated by reference in their entirety.
A mash starter mash feed (formulation shown in Table 9, below) was subdivided into three groups: basal (control), 0.2% DLM, or 0.2% Alimet®. The feed studied had no commercial mold inhibitors added, and is representative of a typical broiler feed.
Initial moisture of the feed was 10.8%. After the addition of Alimet® or DLM, the moisture of the samples was adjusted by the addition of 2%, 4%, or 6% sterile distilled water to promote mold growth, achieving three moisture groups: […].
For each study, four replicate samples of each moisture group were mixed, and 600 g of the mixture was placed into 1 L containers, sealed, and placed at 28° C. in a temperature-controlled room. Draeger Detector tubes (CO2-measuring, obtained from Fisher Scientific) were used to measure the developed CO2 at different days following vessel sealing (two measurements were made per week). Draeger Short-Term Detector Tubes are glass tubes filled with inert carrier and an indicating reagent. The reagent produces a colorimetric indication in the presence of a particular gas (CO2). The concentration of gas is read directly from the discoloration on the tube's printed scale.
The specific mold species present were not identified. Statistical analysis was accomplished by using Duncan's multiple range test (SAS). Different letters on individual time points in FIGS. 9-11 indicate statistical differences of P<0.05.
The experiment described above in Example 7 was repeated with blends of 2.0 lb/ton, 1.5 lb/ton, 1.0 lb/ton or 0.5 lb/ton of 65% propionic acid and either […]. The blends were prepared according to the matrix outlined in Table 8, below. The 65% propionic acid was buffered with ammonium hydroxide to a pH of 5.5.

A further test deals with Salmonella. Particulars: for Average cfu/g / Average log / Average Δ log: protocol of Example 9; for Average Δ log: versus control; for Δ log: Table 11, 90 min 37 C.
A further test concerns S. enteritidis. The experiment in a line: S. enteritidis colony counts in broth (Examples 1-3, 17). Particulars: pH 4.5; for log cfu/mL: Table 24, blends total 5 g/L, control […]; for log cfu/mL (S. enteritidis colony counts in broth): total 5 g/L, protocol of Example 1; for inhibitory effect on S. enteritidis: 5 g/l, Example 17.
The subject of a further test is E. coli (ATCC 25922). The experiment in a line: E. coli populations in trypticase soy broth with acid:Alimet blends (Example 4). Type of test: cell-based. Particulars: Table 7, total 6 g/L, initial 4.97 log cfu/mL. An excerpt:
Blends of organic acid:Alimet® of 2:1 and 5:1 were studied, at a total concentration (organic acid+Alimet®) of 6 g/L.
The pH of the solutions were originally adjusted to pH 5 by addition of HCl and/or NaOH as needed. Activated E. coli culture solutions were transferred to fresh soy broth twice at 24-hour intervals prior to before addition of the organic acid:Alimet® blend. E. coli culture solutions were centrifuged; pellet produced was re-suspended with Butterfield buffer, and the resulting solutions were diluted to approximately 10^7 CFU E. coil/mL.
Bottles were inoculated with 100 μL of prepared bacterial suspension and an organic acid:Alimet® blend. Samples were taken after five and 24 hours of incubation, serially diluted and spread-plated on trypticase soy agar, and incubated at 35° C. for 24 hours.

Test [1] relates to Common carp, Cyprinus carpio L. The experiment in a line: Feeding preference of common carp, number of bites (Example 25). To be noted: for Bites/10 minutes: test diet vs control diet in same tank. Type of test: in vivo. The method, then: Common carp, Cyprinus carpio L. from a commercial fish farm were acquired and sorted to common body weight and length, about 20 g and 8-11 cm, respectively. […] Diets were mixed with adequate water to create a stable feed ball. […] Twenty tanks (45 cm×40 cm×45 cm) were dedicated the feeding behavior assessment. Two fish were housed in each tank with two feeding bars per tank. […] The water in each tank was aerated 24 h a day and the fish were fed the control diet under the above conditions for one week prior to the study. To evaluate preference, the control and test diets were each placed on one of the two bars in each tank.

The subject of the next test is E. coli. The experiment in a line: E. coli colony counts over time in soy broth at pH 4 or 7.3 (Example 5). Type of test: cell-based. To be noted: FIG. 5. The method, then: The cultures were incubated, and colony counts performed at increasing times.
[2] abbreviates: Table 26, acid or formaldehyde plus Alimet.
[3] abbreviates: Table 34, formulations of Table 33 (g/kg).
[4] abbreviates: Table 37, formulations of Table 36 (g/kg).
[5] abbreviates: Table 38, formulations of Table 36 (g/kg).

Counter-ions that a name gives are not always drawn. Like-named read-outs stand apart in the source and are kept apart here.

Experimental for Salmonella: Tests were carried out using 1 g feed (crumble ground) with 6% meat and bone meal (“MBM”). […] The acid solutions were added to the feed as indicated below; water (1 mL) and 150 mM HCl (1.8 mL) was added to bring the pH to 4.0. Naldixic Acid resistant Salmonella (provided by Dr. Stan Bailey, USDA/ARS, Athens, Ga.) (initial colony count=40,000 cfu/g) was added, and the feed solutions were incubated at 37 C for 90 min. Each sample was diluted with 6 mL H2O, plated, and counted the following day.

In the case of `CCC(=O)O` [65% propionic acid, propionic acid], in the test with mold, the “delay of the onset of mold growth” value was “about 11 days”.

Molecule `CCCC(=O)O` [Blend A16] had a log cfu/g in the test with Salmonella (Table 13, blends without Alimet, control 4.7) of 2.7 log cfu/g. In the test with Salmonella (Table 13, blends without Alimet, vs control), the Δ log reduction is 2.0.

For `O=CO` [Blend A81], in the test with S. enteritidis, the “log cfu/mL” value is listed as 3.93 log cfu/mL.

For `CCCC(=O)O` [Blend A87], the “log cfu/mL” value in the test with S. enteritidis turned out to be 4.44 log cfu/mL.

`O=C(O)CC(O)(CC(=O)O)C(=O)O` [Blend A93]: the “log cfu/mL” value with S. enteritidis is reported as 4.74 log cfu/mL.

For the molecule `O=C(O)/C=C/C(=O)O` [Blend A99], the “log cfu/mL (S. enteritidis colony counts in broth)” value in the test on S. enteritidis (Table 25, acid plus Alimet) is given as 4.68 log cfu/mL.

Take `CC(O)C(=O)O` (stereo not shown) [Blend A105]: in the test with S. enteritidis (Table 25, acid plus Alimet), the “log cfu/mL (S. enteritidis colony counts in broth)” value was 4.44 log cfu/mL.

In the case of `O=C(O)CC(O)C(=O)O` (stereo not shown) [Blend A111], the “log cfu/mL (S. enteritidis colony counts in broth)” value in the test with S. enteritidis (Table 25, acid plus Alimet) was 5.01 log cfu/mL.

Take `CCC(=O)O` [Blend A117]: the “log cfu/mL (S. enteritidis colony counts in broth)” value in the test with S. enteritidis (setting [2]) was determined as 4.34 log cfu/mL.

Consider `O=P(O)(O)O` [Blend A123], for which, in the test on S. enteritidis (setting [2]), the “log cfu/mL (S. enteritidis colony counts in broth)” value amounted to 4.68 log cfu/mL.

For the molecule `C=O` [Blend A129], in the test on S. enteritidis (setting [2]), the “log cfu/mL (S. enteritidis colony counts in broth)” value is reported as −0.30 log cfu/mL.

For the molecule `CCCC(=O)O` [Blend A147], in the test on Salmonella (Table 34), the “Trial 1 cfu/g” value was 22,200 cfu/g, the “Trial 2 cfu/g” value was 15,400 cfu/g and the “Average Δ log” value came to 0.4. For the same molecule, in the test with Salmonella (setting [3]), the Average cfu/g was 18,800 cfu/g and the Average log stood at 4.3.

Regarding `CCCC(=O)O` [Blend A177], in the test with Salmonella (Table 37), the “Trial 1 cfu/g” value is recorded as 5,400 cfu/g, the “Trial 2 cfu/g” value is 7,000 cfu/g, the “Trial 3 cfu/g” value is given as 6,600 cfu/g and the “Average Δ log” value is 0.5. In addition, in the test on Salmonella (setting [4]), the Average cfu/g was 6,333 cfu/g and the Average log is 3.8.

As to `CCC(=O)O` [Blend A204], in the test on Salmonella (Table 38), the “Trial 1 cfu/g” value is 5,400 cfu/g, the “Trial 2 cfu/g” value is 1,600 cfu/g and the “Average Δ log” value worked out at 0.6. Also, in the test on Salmonella (setting [5]), the Average cfu/g is given as 3,500 cfu/g and the Average log stood at 3.5.

For `CSCCC(O)C(=O)O` (stereo not shown) [Blend A207], in the test with Salmonella (Table 38), the “Trial 1 cfu/g” value came to 0 cfu/g, the “Trial 2 cfu/g” value worked out at 0 cfu/g, the “Trial 3 cfu/g” value was determined as 0 cfu/g and the “Average Δ log” value worked out at 4.2. The “Trial 4 cfu/g” value in the test with Salmonella (Table 38, Trial 4) stood at 0 cfu/g. The Average cfu/g with Salmonella (setting [5]) came to 0 cfu/g.

With `Cl` [HCl, hydrochloric acid], in the test with E. coli (ATCC 25922), the “log cfu/mL t = 4 h” value is 7.85 log cfu/mL and the “log cfu/mL t = 24 h” value came to 8.34 log cfu/mL.

Regarding `CSCCC(O)C(=O)O` (stereo not shown) [MHA, methionine hydroxy analog], the Bites/10 minutes is given as 74.39 ± 14.14 Bites/10 minutes in test [1] (MHA 0.077 % Inclusion), 67.73 ± 23.18 Bites/10 minutes in test [1] (MHA 0.154 % Inclusion) and 63.52 ± 20.23 Bites/10 minutes in test [1] (MHA 0.308 % Inclusion). Also, in test [1] (common carp, 10 minutes, 0.07-0.28% Alimet or 0.077-0.308% MHA in diet), the “number of bites vs control diet” value is given as “significantly higher”.

Regarding `O=P(O)(O)O` [Phosphoric, phosphoric acid], the “inhibitory effect on S. enteritidis” value in the test on S. enteritidis was “do not show a significant inhibitory effect”.

As to `CCCC(=O)O` [butyric, butyric acid], the Δ log was 0.7 in the test with Salmonella (10 g/L, vs control); 4.0 with Salmonella (30 g/L, vs control); 4.0 in the test with Salmonella (50 g/L, vs control).

Take `O=C(O)/C=C/C(=O)O` [fumaric, fumaric acid]: the “inhibitory effect on S. enteritidis” value in the test with S. enteritidis is reported as “do not show a significant inhibitory effect”.

As for `CC(O)C(=O)O` (stereo not shown) [lactic, lactic acid], in the test on E. coli, the “decrease of colony counts of E. coli vs hydrochloric acid” value is reported as “better than hydrochloric acid”. Also, in the test on S. enteritidis, the “inhibitory effect on S. enteritidis” value is recorded as “do not show a significant inhibitory effect”.

For the molecule `O=C(O)CC(O)C(=O)O` (stereo not shown) [malic, malic acid], the “inhibitory effect on S. enteritidis” value in the test with S. enteritidis was “do not show a significant inhibitory effect”.

As to `CCC(=O)O` [propionic, propionic acid], in the test with S. enteritidis, the “inhibitory effect on S. enteritidis” value is listed as “do not show a significant inhibitory effect”.
